Assay results published in patent US20250354096A1, “IN VITRO DEVICE FOR VASCULARIZED MICROFLUIDIC MODELING OF OSTEOCHONDRAL UNIT” (CFD Research Corporation, priority 2024, published 2025).

Legend:
[1] = tested on: tri-culture of hMSC derived chondrocytes, hMSC derived osteoblasts and HUVEC; test: Inflammatory assay: oxidative stress (CellROX Orange ROS) in tri-culture OC device; type: cell-based, human; conditions: 100 ng/mL LPS perfused into channel 3, no RAP; 4 hours without flow; versus control; n=3; FIG. 8
Description: In the tri-culture device, OA-like cues were supplied to observe i) oxidative stress induced by LPS conditioning, and ii) the reduction of the oxidative stress in the simultaneous presence of LPS and the anti-inflammatory drug Rapamycin (RAP). Thus, three conditions were investigated: no insult (control,-LPS-RAP), insult (+LPS−RAP), and insult plus treatment (+LPS+RAP). For the insult, the medium was exchanged in established devices with 100 ng/mL LPS perfused into channel 3 to maximize inflammation across the device by supplying LPS in the closest proximity to both bone and vasculature. […]
Resultant oxidative stress was measured by image processing after four hours by the CellROX™ Orange Reactive Oxygen Species Detection Kit (Thermo Fisher), a fluorometric reactive oxygen species (ROS) assay, according to the manufacture's protocol. […] The same microscope was used to capture images for each experiment and exposure and other microscope settings were kept constant to allow quantitative comparisons between micrographs. Quantitative measurement of relative ROS was conducted by image analysis via ImageJ and Matlab®. Briefly, for each condition (i.e., i)-LPS-RAP; ii)+LPS-RAP; iii)+LPS+RAP) images were split into three regions of interest (ROIs), representing the three channel of the devices (vasculature, bone, cartilage), that were separately analyzed. […]

[2] = tested on: MMPs (catabolic genes related to OA) in bone and cartilage channels; test: qPCR of MMP changes in OC device after defined inflammatory cytokines and drug candidate; type: cell-based, human; conditions: combination of defined inflammatory cytokines for 24 hours, then Tyrphostin-9; versus no treatment and cytokine alone; FIGS. 11A-11F
Description: The qPCR data from extracted cells was obtained from the cells that can be individually extracted on a per-channel basis so that tissues can be analyzed separately. […] Statistical significance determined by Kruskal-Wallis non-parametric test followed by Dunn's post hoc. * p<0.05, ** p<0.01, and *** p<0.001. FIGS. 10A, 10C, and 10E show bone. FIGS. 10B, 10D, and 10F show cartilage.
FIGS. 11A-11F include data that show the MMP changes in response to the combination of defined cytokines and a drug candidate. Devices were exposed to a combination of defined inflammatory cytokines for 24 hours. After 24 hours, the devices were exposed to either fresh medium without cytokines, or to Tyrphostin-9 (TY9), a candidate compound with potential anti-inflammatory effects under consideration as a palliative for osteoarthritis (OA). […] Thus, the device can be used to screen for drugs to treat OA.

Row | Molecule | oxidative stress of the cells (relative ROS, normalized image intensity) [1] | MMP changes (fold change) / inflammatory condition [2]
1 | lipopolysaccharide [LPS] | increases the oxidative stress of the cells in all the compartment | 
2 | CC(C)(C)c1cc(C=C(C#N)C#N)cc(C(C)(C)C)c1O [Tyrphostin-9] |  | inflammatory condition is improved
